From patent US11058756B2, “Compositions and methods of treating autoimmune disease by reducing enterococcus” (YALE UNIVERSITY, priority 2017, dated 2021) come the findings set out here.

The test system of assay [1] is MLN Th17 cells. As to the kind of experiment: Vancomycin in vitro assay on MLN cell cultures (Th17 frequency by FACS). It counts as cell-based, mouse. As to conditions: vancomycin 16 μg/mL, anti-CD3/anti-CD28, 3 days (FIG. 19D legend). As to the method:
[…] In vitro samples were stained as described above. All samples were collected using an LSR II flow cytometer (Becton Dickinson). All flow cytometry data were analyzed by FlowJo version 9.7 (Tree Star).
In general terms: In flow cytometry, cells or beads pass a laser one at a time.

Assay [2] deals with ERV gp70. Kind of assay: Liver ERV gp70 expression by RT-qPCR after oral antibiotics. It counts as in vivo, mouse. As to conditions: oral vancomycin; FIG. 7. The text has this: Mice were cohoused for 3 to 4 weeks before antibiotic treatment to allow for equilibration of the microbiota. Single antibiotic or broad-spectrum antibiotic administration consisted of metronidazole (1 g/liter; Fisher Scientific), neomycin (1 g/liter; Fisher Scientific), ampicillin (1 g/liter; Sigma) and vancomycin (0.5 g/liter; Acros Organics) in the drinking water for up to 22 weeks or a targeted regiment for 2 weeks and then replaced with regular water for the duration of the experiment. For broad-spectrum antibiotic experiments (vancomycin, ampicillin, metronidazole, and neomycin combined), sweetener (Equal, 4 g/L) was added to both the antibiotics and control water due to the metallic taste of metronidazole. Twenty-four hours after cessation of antibiotic water, mice were administered 1×10^6 CFUs of vancomycin-resistant E. gallinarum via oral gavage, isolated from liver tissue of a vancomycin-treated mouse that continued to show signs of autoimmune disease (high-level resistance was confirmed by vanC gene PCR). […]
RNA was isolated from hepatocytes, dendritic cells or ileum using the RNAeasy plus mini kit (Qiagen) according to the manufacturer's instructions. cDNA was generated using the QuantiTect Reverse Transcription Kit (Qiagen). […]
In general terms: Real-time PCR tracks product formation cycle by cycle.

Assay [3] has as its system Th17 and Tfh cells. Kind of assay: Th17/Tfh cell frequencies (FACS) and splenocyte cytokines (LEGENDplex) after antibiotic treatment in vivo. On the set-up: species or system mouse. An excerpt:
Mice were cohoused for 3 to 4 weeks before antibiotic treatment to allow for equilibration of the microbiota. Single antibiotic or broad-spectrum antibiotic administration consisted of metronidazole (1 g/liter; Fisher Scientific), neomycin (1 g/liter; Fisher Scientific), ampicillin (1 g/liter; Sigma) and vancomycin (0.5 g/liter; Acros Organics) in the drinking water for up to 22 weeks or a targeted regiment for 2 weeks and then replaced with regular water for the duration of the experiment. For broad-spectrum antibiotic experiments (vancomycin, ampicillin, metronidazole, and neomycin combined), sweetener (Equal, 4 g/L) was added to both the antibiotics and control water due to the metallic taste of metronidazole. Twenty-four hours after cessation of antibiotic water, mice were administered 1×10^6 CFUs of vancomycin-resistant E. gallinarum via oral gavage, isolated from liver tissue of a vancomycin-treated mouse that continued to show signs of autoimmune disease (high-level resistance was confirmed by vanC gene PCR). E. gallinarum was grown at 37° C. in Gifu Anaerobic Broth (HIMEDIA Laboratories) to early stationary phase under anaerobic conditions (82% N2, 15% CO2, 3% H2 by volume) in an anaerobic chamber and diluted in PBS to 10^7 CFUs.
Cytokine levels were determined from culture supernatants using LEGENDplex™ (BioLegend), a bead-based immunoassay. The preformed mouse T helper cytokine panel was used. […]
For direct ex vivo intracellular cytokine detection, cells isolated from small intestinal lamina propria, MLN or spleen were immediately treated with GolgiStop (BD Bioscience) and surface-stained in FACS buffer (PBS, 2% bovine serum albumin, 0.2 mg of sodium azide, 2 mM EDTA) for 30 minutes in the dark at room temperature with fluorescently conjugated antibodies specific for CD3, CD4, CD11b, CD11c, CD44, CD62L, CD19, CD45, CD45R (B220), CXCR5, GITR, IL-17, IFN-g, Ly6C, NK1.1, PDCA-1, PD-1 and PSGL-1. […] Cell viability was assessed with Zombie NIR Fixable Viability Kit (BioLegend).

Entries after “also recorded” stand apart in the source; their conditions may differ.

Regarding `CN[C@H](CC(C)C)C(=O)N[C@H]1C(=O)N[C@@H](CC(N)=O)C(=O)N[C@H]2C(=O)N[C@H]3C(=O)N[C@H](C(=O)N[C@H](C(=O)O)c4cc(O)cc(O)c4-c4cc3ccc4O)[C@H](O)c3ccc(c(Cl)c3)Oc3cc2cc(c3O[C@@H]2O[C@H](CO)[C@@H](O)[C@H](O)[C@H]2O[C@H]2C[C@](C)(N)[C@H](O)[C@H](C)O2)Oc2ccc(cc2Cl)[C@H]1O` [vancomycin], in assay [1], the “direct influence on immune cells in vitro (MLN Th17 cell frequency)” value is recorded as “no direct influence”. In assay [2], the “hepatic ERV gp70” value was “suppressed”. Besides, in assay [3] (MLN of (NZWxBXSB)F1 mice treated via drinking water, FIG. 19C), the Tfh cells result is on record as “reduced; also recorded: suppresses”. In addition, in assay [3] (spleen and MLN of (NZWxBXSB)F1 mice, SFB-negative, treated via drinking water, FIG. 19), the Th17 cells result was “reduced; also recorded: suppresses”. Besides, the “cytokine signatures (inflammatory cytokines in splenocyte supernatants)” value in assay [3] (splenocytes stimulated with anti-CD3/anti-CD28 for 3 days, FIG. 19A) is “reduced; also recorded: suppresses”.
